{
  "source": "patent US9597336B2",
  "about": "“Therapy for treatment of chronic degenerative brain diseases and nervous system injury” (THE REGENTS OF THE UNIVERSITY OF CALIFORNIA, priority 2004, dated 2017)",
  "key": {"Niemann Pick type-C mice [1]": {"tested_on": "Niemann Pick type-C mice", "experiment": "Allopregnanolone, T0901317 and their combination in NP-C mice: lifespan, rotorod", "assay_type": "in vivo, mouse", "settings": "for lifespan (mean): allopregnanolone 25 mg/kg s.c. single injection at P7, T0901317 50 mg/kg/day from day 18; for onset of symptoms: rotorod trials; for age at which loss of motor function begins: untreated begin at 35 days", "method": "(§1) The materials and methods used for the following experiments have been described in Griffin L. D., et al., Nature Medicine 10: 704-711 (2004). This reference is hereby incorporated by reference in its entirety.\nMice were given a single injection of allopregnanolone, prepared in 20% β-cyclodextrin in phosphate buffered saline, at a concentration of 25 mg/kg. The injection was on day 7 of life (P7, postnatal day 7). T0901317 treatment was started on day 18 (50 mg/kg/day) in chow. Efficacy was assessed by measuring body weight, and neurological symptoms, using a rotorod test. Efficacy was further assessed by measuring lifespan."}, "[2]": {"tested_on": "cerebellar astrocytes from P3 cerebella", "experiment": "Neurotrophin secretion in cultured cerebellar astrocytes (ELISA)", "assay_type": "cell-based, mouse", "method": "as §1\nPure cultures of cerebellar astrocytes from P3 cerebella were cultured for 1-3 days±10 nM allopregnanolone, and NGF was assayed every 24 hr by ELISA."}, "[3]": {"tested_on": "CD4+, CD8+, MAC1+ and MHCII+ cells in brain", "experiment": "Immunocytochemistry of inflammatory cells in brains of NP-C mice", "assay_type": "in vivo, mouse", "method": "as §1\n(§2) Mice were again given a single injection of allopregnanolone, prepared in 20% β-cyclodextrin in phosphate buffered saline, at a concentration of 25 mg/kg. The injection was on day 7 of life (P7, postnatal day 7). Inflammation was measured by assessing the number of CD4^+ CD8^+, MAC1^+, and MHCII^+ cells, using immunocytochemistry. Concentrations of brain cytokines were also measured, using by enzyme linked immunoabsorbent (ELISA) assays."}, "[4]": {"tested_on": "gangliosides GM1, GM2, and GM3 in the brain", "experiment": "Ganglioside accumulation in brain of allopregnanolone-treated Niemann Pick type-C mice", "assay_type": "in vivo, mouse", "method": "as §1\nMice were given a single injection of allopregnanolone, prepared in 20% βcyclodextrin in phosphate buffered saline, at a concentration of 25 mg/kg. The injection was on day 7 of life (P7, postnatal day 7). Concentrations of gangliosides GM1, GM2, GM3, were measured as well as other lipids such as ceramides and cerebrosides."}, "[5]": {"tested_on": "brain cytokines (TGFβ, IL1β)", "experiment": "Brain cytokine concentrations by ELISA in NP-C mice", "assay_type": "in vivo, mouse", "settings": "adult NP-C mice treated at day 7, vs untreated NP-C mice", "method": "as §1, §2"}, "Niemann Pick type-C mice [6]": {"tested_on": "Niemann Pick type-C mice", "experiment": "Ganaxolone treatment of NP-C mice: lifespan, weight, locomotor skills", "assay_type": "in vivo, mouse", "method": "as §1\nMice were given a single injection of ganaxolone, prepared in 20% β-cyclodextrin in phosphate buffered saline, at a concentration of 25 mg/kg. The injection was on day 7 of life (P7, postnatal day 7).\nEfficacy of treatment was assessed by measuring body weight, neurological symptoms, using behavioral tests such as wire hang test, rope climbing test, walking on an mesh inclined plane, and walking on a horizontal surface, measuring coordination, use of all 4 limbs, posture, tail placement. Efficacy was also assessed by measuring lifespan. Results of these experiments are summarized below, and are shown graphically in FIG. 7."}, "[7]": {"settings": "adult (60-day old) NP-C mice treated at P7"}},
  "note": "“Also recorded” adds a separate entry of the source.",
  "data": [
    {"smiles": "O=S(=O)(c1ccccc1)N(CC(F)(F)F)c1ccc(C(O)(C(F)(F)F)C(F)(F)F)cc1", "note": "[T0901317]", "values": [
      {"measurement": "lifespan (mean)", "setting": "Niemann Pick type-C mice [1]", "result": 80, "unit": "days"},
      {"measurement": "course of loss of motor function / decline in symptoms", "setting": "Niemann Pick type-C mice [1]; rotorod", "result": "blunted"},
      {"measurement": "onset of symptoms", "setting": "Niemann Pick type-C mice [1]", "result": "delayed"},
      {"measurement": "age at which loss of motor function begins", "setting": "Niemann Pick type-C mice [1]; rotorod", "result": 42, "unit": "days"}
    ]},
    {"smiles": "CC(=O)[C@H]1CC[C@H]2[C@@H]3CC[C@H]4C[C@H](O)CC[C@]4(C)[C@H]3CC[C@]12C", "note": "[allopregnanolone]", "values": [
      {"measurement": "production of NGF", "setting": "[2]; NP-C mouse cerebellar astrocytes cultured 1-3 days with 10 nM, vs untreated control cells", "result": "increases"},
      {"measurement": "concentrations of the neurotrophins NGF and BDNF", "setting": "[2]; cerebellar cells in culture", "result": "increases"},
      {"measurement": "apoptotic neurons in the brain", "setting": "[3]; NP-C mice, 25 mg/kg single injection at P7", "result": "substantial reduction"},
      {"measurement": "number of T cells and activated macrophages in brain", "setting": "[3]; NP-C mice, 25 mg/kg single injection at P7, vs untreated controls", "result": "significant reduction"},
      {"measurement": "increase in immunostaining for CD4 and CD8 T cells, cerebellum", "setting": "[3]; [7]", "result": "absent"},
      {"measurement": "increase in immunostaining for CD4 and CD8 T cells, thalamus/hypothalamus", "setting": "[3]; [7]", "result": "absent"},
      {"measurement": "immunostaining for MAC1 and MHC II (activated macrophages), thalamus", "setting": "[3]; adult (60-day old) NP-C mice treated at day 7, vs untreated NP-C mice", "result": "substantially reduced"},
      {"measurement": "amount of the gangliosides GM1, GM2, and GM3 in brain", "setting": "[4]; NP-C mice, single injection 25 mg/kg at P7, compared with untreated controls", "result": "reduced"},
      {"measurement": "degree of reduction in the gangliosides by timing of treatment", "setting": "[4]; NP-C mice, treatment at postnatal day 7 compared with postnatal day 10", "result": "greater reduction"},
      {"measurement": "GM1 or GM2 immunostaining, cerebellum", "setting": "[4]; [7]", "result": "only slight immunostaining"},
      {"measurement": "GM1 or GM2 immunostaining, thalamus/hypothalamus", "setting": "[4]; [7]", "result": "only very slight immunostaining"},
      {"measurement": "lifespan (mean)", "setting": "Niemann Pick type-C mice [1]", "result": 112, "unit": "days"},
      {"measurement": "onset of symptoms", "setting": "Niemann Pick type-C mice [1]", "result": "delayed"},
      {"measurement": "age at which loss of motor function begins", "setting": "Niemann Pick type-C mice [1]; rotorod", "result": 49, "unit": "days"},
      {"measurement": "brain cytokine concentrations (TGFβ and IL1β)", "setting": "[5]", "result": "substantial reduction; also recorded: substantially reduced"}
    ]},
    {"smiles": "CC(=O)[C@H]1CC[C@H]2[C@@H]3CC[C@H]4C[C@](C)(O)CC[C@]4(C)[C@H]3CC[C@]12C", "note": "[ganaxolone]", "values": [
      {"measurement": "weight loss and tremor", "setting": "Niemann Pick type-C mice [6]", "result": "delays"},
      {"measurement": "lifespan (average)", "setting": "Niemann Pick type-C mice [6]; single injection 25 mg/kg at P7, untreated 67 (±10) days", "result": 118, "unit": "days"},
      {"measurement": "duration of the loss of motor function", "setting": "Niemann Pick type-C mice [6]; single injection at P7, untreated 3-4 weeks", "result": 5, "unit": "weeks"},
      {"measurement": "age at which loss of motor function (locomotion and coordination) begins", "setting": "Niemann Pick type-C mice [6]; single injection at P7, untreated begin at 6-7 weeks", "result": 10, "unit": "weeks"},
      {"measurement": "age at which weight loss begins", "setting": "Niemann Pick type-C mice [6]; single injection at P7, untreated begin at 6 weeks", "result": 10, "unit": "weeks"},
      {"measurement": "rate of weight loss", "setting": "Niemann Pick type-C mice [6]; single injection at P7, vs untreated NP-C mice", "result": "more slowly"}
    ]}
  ]
}
